Legend:
Format in all cases: in vivo
[1] = system: French beans (Phaseolus vulgaris); test: Post-emergence foliar spray, herbicidal/growth regulant response, French beans; conditions: foliar spray 11.2 kg/ha, 7 days, 0=no effect, 100=complete kill
Description: Seeds of the plant species listed below were sown in anodised aluminium pans, 19 cm long×9.5 cm wide×5 cm deep, containing John Innes I potting compost. They were then watered and placed in a controlled environment room (22° C.; 65-85% relative humidity; 14 hours per day artificial illumination at 13,000 lux). Fourteen days after sowing, the seedlings received a foliar spray of a compound listed below, formulated as a solution in 1:1 by volume aqueous acetone. The concentration of active ingredient and volume of application were adjusted so as to be equivalent to a rate of 11.2 kg/ha in 450 liters per hectare. After seven days growth in the controlled environment room, the plants were visually assessed for any herbicidal or growth regulant response. All differences from the untreated control were scored according to an index where 0=no effect and 100=complete kill.
The product of Example 95 was tested according to the procedure of Examples 49-55.

[2] = system: Oats (Avena sativa); test: Soil incorporation (attaclay/sand dust), growth regulatory or herbicidal effects, oats; conditions: 504 h, 21 days, 0=no effect, read-out: growth regulatory or herbicidal effect score; for plant injury at 26 µg/mL: soil incorporation 26 ppm, 100=complete kill
Summary of the method: (§1)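 Scores (0-100, where 100 means complete kill) were given by visual assessment against untreated plants after 21 days in a 22° C controlled environment room with 14 h of 13,000 lux light daily. Seeds had been sown into compost containing the attaclay/sand dust formulation at 26 or 130 ppm w/v.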

[3] = system: Chickweed; test: Soil incorporation (I), chickweed; conditions: I soil incorporation 6.5 ppm, 21 days, 0=no effect, 100=complete suppression
Source text: (§2) Each of the compounds listed below was formulated as: […]
(§3) (I) an attaclay/sand dust and incorporated in John Innes I potting compost at a rate equivalent to 6.5 and 3.25 parts per million weight/volume of active ingredient to soil and placed in anodised aluminium pans, 19 cm long×9.5 cm wide×5.0 cm high. This is approximately equivalent to a surface application of 2.8 and 1.4 kg active ingredient per hectare cultivated to a depth of 5 cm. Seeds of the species listed below were sown in the treated soil, one species per pan, watered and placed in a controlled environment room (22° C.; 65-85% relative humidity and 14 hours artificial illumination at 17,000 lux) for 21 days.
(§4) The plants were then visually assessed for any growth regulatory or herbicidal effects. All differences from an untreated control were scored on a scale from 0-100, where 0 signifies no effect and 100 signifies complete suppression.
(§5) The results are shown in the following table where I stands for soil incorporation and II for surface spray.

[4] = system: Peas (Pisum sativum); test: Soil incorporation (attaclay/sand dust), growth regulatory or herbicidal effects, peas; conditions: Lathyrus oleraceus, 504 h, 21 days, 0=no effect, read-out: growth regulatory or herbicidal effect score; for pest or weed control at 26 µg/mL: soil incorporation 26 ppm, 100=complete kill
Summary of the method: as §1

[5] = system: Carrot; test: Soil incorporation (I), carrot; conditions: I soil incorporation 6.5 ppm, 21 days, 0=no effect, 100=complete suppression
Source text: as §2, §3, §4, §5

[6] = system: Linseed (Linum usitatissimum); test: Post-emergence foliar spray, herbicidal/growth regulant response, linseed; conditions: 168 h, foliar spray 11.2 kg/ha, 7 days, 0=no effect, 100=complete kill, read-out: herbicidal or growth regulant response index
Summary of the method: (§6)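 Score is a visual index from 0 (no effect) to 100 (complete kill) versus untreated control, assessed seven days after spraying. Plants were treated 14 days post-sowing at a rate equivalent to 11.2 kg/ha in 450 liters per hectare, compound dissolved in 1:1 aqueous acetone.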

[7] = system: Cotton; test: Soil incorporation (I), cotton; conditions: I soil incorporation 6.5 ppm, 21 days, 0=no effect, 100=complete suppression
Source text: as §2, §3, §4, §5

[8] = system: Maize (Zea mays); test: Soil incorporation (attaclay/sand dust), growth regulatory or herbicidal effects, maize; conditions: 504 h, 21 days, 0=no effect, read-out: growth regulatory or herbicidal effect score; for plant injury at 26 µg/mL: soil incorporation 26 ppm, 100=complete kill
Summary of the method: as §1

[9] = system: Linseed (Linum usitatissimum); test: Soil incorporation (attaclay/sand dust), growth regulatory or herbicidal effects, linseed; conditions: 504 h, 21 days, 0=no effect, read-out: growth regulatory or herbicidal effect score; for pest or weed control at 26 µg/mL: soil incorporation 26 ppm, 100=complete kill
Summary of the method: as §1

[10] = system: Mustard (Sinapis alba); test: Post-emergence foliar spray, herbicidal/growth regulant response, mustard; conditions: 168 h, foliar spray 11.2 kg/ha, 7 days, 0=no effect, 100=complete kill, read-out: herbicidal or growth regulant response index
Summary of the method: as §6

[11] = system: Peas (Pisum sativum); test: Post-emergence foliar spray, herbicidal/growth regulant response, peas; conditions: Lathyrus oleraceus, 168 h, foliar spray 11.2 kg/ha, 7 days, 0=no effect, 100=complete kill, read-out: herbicidal or growth regulant response index
Summary of the method: as §6

[12] = system: Tomato; test: Soil incorporation (I), tomato; conditions: I soil incorporation 6.5 ppm, 21 days, 0=no effect, 100=complete suppression
Source text: as §2, §3, §4, §5

[13] = system: Ryegrass (Lolium perenne); test: Soil incorporation (attaclay/sand dust), growth regulatory or herbicidal effects, ryegrass; conditions: 504 h, 21 days, 0=no effect, read-out: growth regulatory or herbicidal effect score; for pest or weed control at 26 µg/mL: soil incorporation 26 ppm, 100=complete kill
Summary of the method: as §1

[14] = system: Oat (Avena sativa); test: Post-emergence foliar spray, herbicidal/growth regulant response, oat; conditions: 168 h, foliar spray 11.2 kg/ha, 7 days, 0=no effect, 100=complete kill, read-out: herbicidal or growth regulant response index
Summary of the method: as §6

[15] = system: Sugarbeet (Beta vulgaris); test: Post-emergence foliar spray, herbicidal/growth regulant response, sugarbeet; conditions: 168 h, foliar spray 11.2 kg/ha, 7 days, 0=no effect, 100=complete kill, read-out: herbicidal or growth regulant response index
Summary of the method: as §6

[16] = system: Mustard (Sinapis alba); test: Soil incorporation (attaclay/sand dust), growth regulatory or herbicidal effects, mustard; conditions: 504 h, 21 days, 0=no effect, read-out: growth regulatory or herbicidal effect score; for pest or weed control at 26 µg/mL: soil incorporation 26 ppm, 100=complete kill
Summary of the method: as §1

[17] = system: Ryegrass (Lolium perenne); test: Post-emergence foliar spray, herbicidal/growth regulant response, ryegrass; conditions: 168 h, foliar spray 11.2 kg/ha, 7 days, 0=no effect, 100=complete kill, read-out: herbicidal or growth regulant response index
Summary of the method: as §6

[18] = system: Fathen; test: Soil incorporation (I), fathen; conditions: I soil incorporation 6.5 ppm, 21 days, 0=no effect, 100=complete suppression
Source text: as §2, §3, §4, §5

[19] = system: Mustard; test: Soil incorporation (I), mustard; conditions: I soil incorporation 6.5 ppm, 21 days, 0=no effect, 100=complete suppression
Source text: as §2, §3, §4, §5

[20] = system: Barnyardgrass (Echinochloa crus-galli); test: Post-emergence foliar spray of monocotyledons, barnyardgrass; conditions: foliar spray 2.8 kg/ha, 14 days, 0=no effect, 100=complete kill
Description: (§7) Seeds of the monocotyledon species listed below were sown in anodised aluminium pans, 19 cm long×9.5 cm wide×5.0 cm deep, containing John Innes I potting compost. They were then watered and placed in a controlled environment room (22° C.; 65-85% relative humidity; 14 hours per day artificial illumination at 17,000 lux). 14 days after sowing, the seedlings were given a foliar spray of the compound of Example 44, formulated as an aqueous suspension together with 2000 ppm of the wetting agent Lissapol NX. The dosage rate was adjusted to be 2.8 kg active ingredient in 450 liters per hectare. After a further 14 days in the controlled environment room, the plants were visually assessed for any growth regulatory or herbicidal effect. All differences from an untreated control were scored on a scale from 0-100 where 0 signifies no effect and 100 signifies complete kill.
(§8) The compounds listed below were tested according to the procedure of Example 66 but including rice (Oryza sativa) as an additional test species.

[21] = system: Rice (Orysae sotiva); test: Pre-emergence soil surface spray, rice; conditions: soil surface spray 2.8 kg/ha, 21 days, 0=no effect, 100=complete kill
Source text: (§9) Seeds of the plant species listed below were sown in John Innes I potting compost in aluminium pans, 19 cm long×9.5 cm wide×5.0 cm high, one species per pan. The soil surface was then sprayed with a compound listed below, formulated as a solution in 1:1 by volume aqueous acetone except for the compound of Example 44 which was formulated as an aqueous suspension containing 1000 parts per million of the wetting agent Lissapol NX (nonylphenol/ethylene oxide condensate). Each compound was applied at a rate of 2.8 kg of active ingredient per hectare in 450 liters of spray liquid per hectare. The pans were then watered, and placed in a controlled environment room (22° C., relative humidity 65-85%, 14 hours per day artificial illumination at 17,000 lux) for 21 days. The plants were then visually assessed for any growth regulatory or herbicidal effects. All differences from an untreated control were scored on a scale from 0-100, where 0 signifies no effect and 100 signifies complete kill.

[22] = system: Barnyardgrass (Echinochloa crus-galli); test: Pre-emergence soil surface spray, barnyardgrass; conditions: soil surface spray 2.8 kg/ha, 21 days, 0=no effect, 100=complete kill
Source text: as §9

[23] = system: Wheat (Triticum aestivum); test: Post-emergence foliar spray of monocotyledons, wheat; conditions: foliar spray 2.8 kg/ha, 14 days, 0=no effect, 100=complete kill
Description: as §7, §8

[24] = system: Wild Oat (Avena fatua); test: Pre-emergence soil surface spray, wild oat; conditions: soil surface spray 2.8 kg/ha, 21 days, 0=no effect, 100=complete kill
Source text: as §9

[25] = system: Blackgrass (Alopecurus myosuroides); test: Pre-emergence soil surface spray, blackgrass; conditions: soil surface spray 2.8 kg/ha, 21 days, 0=no effect, 100=complete kill
Source text: as §9

[26] = system: Crabgrass (Digitaria sanguinalis); test: Pre-emergence soil surface spray, crabgrass; conditions: soil surface spray 2.8 kg/ha, 21 days, 0=no effect, 100=complete kill
Source text: as §9

[27] = system: Barley (Hordeum vulgare); test: Post-emergence foliar spray of monocotyledons, barley; conditions: foliar spray 2.8 kg/ha, 14 days, 0=no effect, 100=complete kill
Description: as §7, §8

[28] = system: Barley (Hordeum vulgare); test: Pre-emergence soil surface spray, barley; conditions: soil surface spray 2.8 kg/ha, 21 days, 0=no effect, 100=complete kill
Source text: as §9

[29] = system: Wheat (Triticum aestivum); test: Pre-emergence soil surface spray, wheat; conditions: soil surface spray 2.8 kg/ha, 21 days, 0=no effect, 100=complete kill
Source text: as §9

[30] = soil incorporation 130 ppm, 100=complete kill/suppression

SMILES: CCOC(=O)C(CC)N(c1c(C)cccc1C)S(C)(=O)=O (centres unmarked) [Example 95]
- herbicidal or growth regulant response index [1]: 100
- plant injury at 26 µg/mL [2]: 0%
- plant injury at 130 µg/mL [2, 30]: 100%
- growth regulatory or herbicidal effect score [3]: 90
- pest or weed control at 26 µg/mL [4]: 20%
- pest or weed control at 130 µg/mL [4, 30]: 30%
- growth regulatory or herbicidal effect score [5]: 0
- pest or weed control at 11200 g/ha [6]: 25%
- growth regulatory or herbicidal effect score [7]: 5
- plant injury at 26 µg/mL [8]: 50%
- plant injury at 130 µg/mL [8, 30]: 100%
- pest or weed control at 26 µg/mL [9]: 0%
- pest or weed control at 130 µg/mL [9, 30]: 80%
- pest or weed control at 11200 g/ha [10]: 100%
- pest or weed control at 11200 g/ha [11]: 15%
- growth regulatory or herbicidal effect score [12]: 90
- pest or weed control at 26 µg/mL [13]: 90%
- pest or weed control at 130 µg/mL [13, 30]: 100%
- plant injury at 11200 g/ha [14]: 20%
- plant injury at 11200 g/ha [15]: 100%
- pest or weed control at 26 µg/mL [16]: 90%
- pest or weed control at 130 µg/mL [16, 30]: 100%
- pest or weed control at 11200 g/ha [17]: 15%
- growth regulatory or herbicidal effect score [18]: 100
- growth regulatory or herbicidal effect score [19]: 50

SMILES: CS(=O)(=O)N(CC#N)c1ccc(Cl)c(Cl)c1 [Example 44, N-cyanomethyl-3,4-dichloro-methanesulphonanilide]
- growth regulatory or herbicidal effect score [20]: 100
- growth regulatory or herbicidal effect score [21]: 0
- plant injury at 26 µg/mL [2]: 60%
- pest or weed control at 26 µg/mL [4]: 0%
- growth regulatory or herbicidal effect score [22]: 80
- growth regulatory or herbicidal effect score [23]: 0
- growth regulatory or herbicidal effect score [24]: 0
- plant injury at 26 µg/mL [8]: 5%
- pest or weed control at 26 µg/mL [9]: 20%
- growth regulatory or herbicidal effect score [25]: 0
- growth regulatory or herbicidal effect score [26]: 0
- growth regulatory or herbicidal effect score [27]: 0
- pest or weed control at 26 µg/mL [13]: 5%
- pest or weed control at 26 µg/mL [16]: 40%
- growth regulatory or herbicidal effect score [28]: 0
- growth regulatory or herbicidal effect score [29]: 0

From patent US4309559A, “Sulphonamides useful as pesticides” (FBC Limited, priority 1977, dated 1982)
